According to patent US8158389B2, “Products and methods for in vivo secretion of monatin” (priority 2005, dated 2012):
Read-outs that look alike come from different tables or passages of the source. Marks after values point to notes of the source that are not given here.

Assays:
[1] = test system: E. coli MG1655::aspCproApProNde (control); test: AcrAB k.o. validation: growth (OD 600 nm) with novobiocin / sodium decanoate, control strain; assay type: cell-based, Escherichia coli
Procedure: (§1) Single chloramphenicol-resistant colonies were purified by restreaking on appropriate selective media and single colonies were tested by PCR as previously described for the BW25113 knockout strains, to verify the presence of the emrB and acrAB knockouts. The effects of the emrB and acrAB knockouts on the EmrAB and AcrAB transporter systems respectively were determined by assessing the phenotype of the transport mutants using appropriate antibiotics and comparison to wild type control microorganisms as shown in Table 3.1 and Table 3.2 below.

[2] = test system: E. coli MG1655 ΔAcrAB 6-16::aspCproAproNde; test: AcrAB k.o. validation: growth (OD 600 nm) with novobiocin / sodium decanoate, knockout strain; assay type: cell-based, Escherichia coli
Procedure: as §1

[3] = test system: C. glutamicum 13032 transformed with aspCProA pEKEX-2; test: Monatin efflux with increased temperature and sodium pyruvate; assay type: cell-based, Corynebacterium glutamicum
Procedure: Microbiol 151:342-347, (1989). […] The pH was adjusted to 7.0.
Conditions for treatments included 30° or 35° C. throughout the experiment and 250 rpm agitation. At an OD600 nm, between 0.45-0.51, induction of the monatin operon genes was initiated. […] Additions of 1.0 g L-tryptophan, 10 or 15 g/L sodium pyruvate, 0.04 mM pyridoxal-5′-phosphate (“PLP”), were made 3 hours and also at 24 hours following induction. A total of 20 or 30 g/L sodium pyruvate was added to each flask by adding 10 or 15 g/l at each of the two feeding times.

[4] = test system: C. glutamicum ATCC 13032 transformed with aspCProApEKEX-2
Procedure: C. glutamicum ATCC 13032 strains transformed with aspCProApEKEX-2 were grown overnight in LB medium supplemented with 25 μg/mL kanamycin incubated at 37° C. and shaking at 250 rpm. For the experimental treatment flasks, 100 mL of Krämer's A medium was used in each shake flask. Hoischen, C. and Krämer, R., “Evidence for an efflux carrier system involved in the secretion of glutamate by Corynebacterium glutamicum,” Arch. Microbiol 151:342-347, (1989). Krämer's A medium contained (per liter): 5 g (NH4)2SO4, 5 g urea, 2 g KH2PO4, 1.53 g K2HPO4, 0.249 g MgSO4.7H2O, 50 g glucose, 0.01 g FeSO4.7H2O, 0.01 g MnSO4.H2O, 0.01 g CaCl2.2H2O, 0.03 mg ZnSO4.7H2O, 0.1 mg H3BO3, 0.07 mg […], 0.01 mg NiCl2.2H2O, 0.03 mg CuCl2.2H2O, 0.1 mg as Mo^+6 from (NH4)6Mo7O24-4H2O and 1 μg biotin. The pH was adjusted to 7.0.
For treatments, 4.2 v/v % of inoculum was added to 100 mL medium volume in 500 mL baffled shake flasks. Conditions for the treatments included 37° C. throughout the experiment and 250 rpm agitation. Sodium salicylate (0, 1 mM or 2 mM) was added 1 hour following inoculation. At 0.45-0.6 OD600 nm induction of the monatin operon genes was initiated. IPTG at 0.5 mM was used for induction, and additions at the time of induction included 0.5 mM pyridoxine hydrochloride and 0.04 mM pyridoxal-5′-phosphate (“PLP”). Additions of 1 g L-tryptophan, 5 g/L sodium pyruvate and 10 μg/mL ampicillin were made 3 hours following induction. Samples for monatin and dry cell weight determination were taken at 23.5 and 48 hours.
Monatin analysis was conducted as described in Example 13.

E. coli BL21DE3 AP pET32 = test: Monatin excretion with Tween 20, E. coli BL21DE3 with or without Arabidopsis auxin transporter gene; assay type: cell-based, Escherichia coli; details: 0.2% Tween 20
Procedure: For inoculum preparation, the E. coli strains were grown overnight at 37° C. and 250 rpm in Luria-Bertani (“LB”) medium with 100 μg/mL ampicillin and 50 μg/mL kanamycin. For the experimental treatments, Trp-1+glucose medium, a minimal medium that has been used for increased production of tryptophan in E. coli cells (Zeman, et al. Folia Microbiol. 35:200-204, (1990)), was prepared as follows. To 800 mL nanopure water the following reagents were added: 2 g (NH4)2SO4 and 13.6 g KH2PO4. The pH was adjusted to 7.0, the volume was increased to 948 mL, and the medium was autoclaved. Following sterilization, 0.2 g MgSO4.7H2O, 0.01 g CaCl2.2H2O, and 0.5 mg FeSO4.7H2O were added to the medium in a 1.8 mL volume followed by addition of 0.2 mL of Neidhardt's micronutrient solution. Neidhardt F. C., et al., “Culture medium for Enterobacteria,” J. Bacteriol. 119:736-746, (1974). Neidhardt's medium includes (per liter): 0.18 g (NH4)6(MO7)24.4H2O, 1.24 g H3BO3, 0.36 g CoCl2.6H2O, 0.12 g CuSO4 (anhydrous), 0.8 g MnCl2.4H2O, and 0.14 g ZnSO4.7H2O. A 50% glucose solution was prepared separately and sterile-filtered. Forty mL of glucose solution and 10 mL of 1 M 3-Morpholinopropanesulfonic acid (“MOPS”) buffer were added to the base medium (950 mL) for a 1 L final volume.
Conditions for the treatments included 250 rpm agitation throughout and 37° C. up to induction, then, 30° C. following induction. At 0.54-0.62 OD600 nm, induction of the plasmid genes was initiated. At induction, 1.0 mM IPTG, 0.5% L-arabinose, 0.5 mM pyridoxine hydrochloride, and 0.2 mLs of Balch's vitamins were added. Additions of 10 g/L L-tryptophan, 10 g/L sodium pyruvate, 0.04 mM pyridoxal-5′-phosphate (“PLP”) and 0 or 0.2% Tween® 20 (polyoxyethylene 20-sorbitan monolaurate) were made 3 hours following induction.

[5] = 40 or 80 ppm novobiocin, no sodium decanoate
[6] = novobiocin 40 ppm, sodium decanoate 0 mM
[7] = novobiocin 40 ppm, sodium decanoate 2.5 mM
[8] = novobiocin 80 ppm, sodium decanoate 0 mM
[9] = novobiocin 80 ppm, sodium decanoate 2.5 mM
[10] = Arabidopsis auxin transporter gene on pProNde del, n = 3
[11] = no auxin transporter gene on pProNde del, n = 3

## CO[C@@H]1[C@@H](OC(N)=O)[C@@H](O)[C@H](Oc2ccc3c(O)c(NC(=O)c4ccc(O)c(CC=C(C)C)c4)c(=O)oc3c2C)OC1(C)C [novobiocin]
[1]; 0, 40 or 80 ppm novobiocin, in the presence of sodium decanoate
  growth: grew to similar optical densities
[1]; [5]
  growth: only slight inhibition of growth
[1]; [6]
  OD 600 nm at 19 hours: 1.407
[1]; [7]
  OD 600 nm at 19 hours: 1.395
[1]; [8]
  OD 600 nm at 19 hours: 0.793
[1]; [9]
  OD 600 nm at 19 hours: 1.374
[2]; [5]
  growth: growth is completely inhibited
[2]; [6]
  OD 600 nm at 19 hours: 0.007
[2]; [7]
  OD 600 nm at 19 hours: 0.008
[2]; [8]
  OD 600 nm at 19 hours: 0.006
[2]; [9]
  OD 600 nm at 19 hours: 0.008

## CC(=O)C(=O)[O-].[Na+] [pyruvate, sodium pyruvate]
[3]; 30° C., 20 g/L pyruvate
  Monatin/dry cell weight, 24 hours: 0.2 mg/g
  Monatin/dry cell weight, 31 hours: 2.1 mg/g
  Monatin/dry cell weight, 48 hours: 2.7 mg/g
  Monatin/dry cell weight, 54 hours: 2.7 mg/g
[3]; 30° C., 30 g/L pyruvate
  Monatin/dry cell weight, 24 hours: 0.3 mg/g
  Monatin/dry cell weight, 31 hours: 1.8 mg/g
  Monatin/dry cell weight, 48 hours: 4.3 mg/g
  Monatin/dry cell weight, 54 hours: 4.7 mg/g
[3]; 35° C., 20 g/L pyruvate
  Monatin/dry cell weight, 24 hours: 5.4 mg/g
  Monatin/dry cell weight, 31 hours: 14.7 mg/g
  Monatin/dry cell weight, 48 hours: 23.5 mg/g
  Monatin/dry cell weight, 54 hours: 23.8 mg/g
[3]; 35° C., 30 g/L pyruvate
  Monatin/dry cell weight, 24 hours: 5.8 mg/g
  Monatin/dry cell weight, 31 hours: 18.1 mg/g
  Monatin/dry cell weight, 48 hours: 29.4 mg/g
  Monatin/dry cell weight, 54 hours: 35.2 mg/g

## O=C([O-])c1ccccc1O.[Na+] [sodium salicylate, Sodium salicylate]
[4]; 1 mM or 2 mM sodium salicylate, 23.5 hours
  increase in monatin transported: seventy percent increase
[4]; 1 mM or 2 mM sodium salicylate, 48 hours
  increase in monatin efflux: seven percent increase
[4]; 1 mM sodium salicylate
  Monatin/dcw, 23.5 hours: 7.41 mg/g
  Monatin/dcw, 48 hours: 9.94 mg/g
[4]; 2 mM sodium salicylate
  Monatin/dcw, 23.5 hours: 7.54 mg/g
  Monatin/dcw, 48 hours: 9.82 mg/g

## polyoxyethylene 20-sorbitan monolaurate [Tween ® 20]
E. coli BL21DE3 AP pET32; Arabidopsis auxin transporter gene on pProNde del, n = 2
  Monatin/dry cell wt., 30 hours: 26.7* mg/g
E. coli BL21DE3 AP pET32; [10]
  Monatin/dry cell wt., 24 hours: 29.4 mg/g
  Monatin/dry cell wt., 48 hours: 19.7 mg/g
E. coli BL21DE3 AP pET32; [11]
  Monatin/dry cell wt., 24 hours: 2.2 mg/g
  Monatin/dry cell wt., 30 hours: 2.5 mg/g
  Monatin/dry cell wt., 48 hours: 2.2 mg/g
